Assay results published in patent US11560352B2, “P62-ZZ small molecule modulators” (University of Pittsburgh—Of the Commonwealth System of …, priority 2015, dated 2023).
Where a name gives a salt, the structure may show the parent alone.

Assays:
MM1S = assay: inhibition of multiple myeloma cell growth, MM1S cells; assay type: cell-based; settings: Homo sapiens, MM1.S
Source text: (§1) FIG. 2 is a schematic showing in vitro biological assays to validate screened compounds for multiple myeloma cells growth via inhibition of p62-zz domain and PKCζ phosphorylation.

RPMI8266 = assay: inhibition of multiple myeloma cell growth, RPMI8266 cells; assay type: cell-based; settings: Homo sapiens
Source text: as §1

U266 = assay: inhibition of multiple myeloma cell growth, U266 cells; assay type: cell-based; settings: Homo sapiens, U-266
Source text: as §1

[1] = tested on: RPMI-8226 human multiple myeloma xenograft; assay: subcutaneous RPMI-8226 human multiple myeloma xenograft model: efficacy and tolerability; assay type: in vivo
Description: The therapeutic efficacy and tolerability of compound XIELP1-106 (also referred to as 10b) was evaluated in the treatment of subcutaneous RPMI-8226 human multiple myeloma xenograft model. The tumor volumes in the two groups at different time points are shown FIG. 3. The mean tumor volume of the XIELP1-106 vehicle control group reached 1,452 mm3 on day 39 after tumor implantation. The treatment of XIELP1-106 (60 mg/kg, ip, q3d×4 wks) produced a strong antitumor activity with T/C value of 23% (p=0.001).
The median survival time (MST) of the vehicle treated mice was 42 days (FIG. 4).

Row | SMILES | IC50 (MM1S) [µM] | IC50 (RPMI8266) [µM] | IC50 (U266) [µM] | T/C value (antitumor activity) ([1]; 60 mg/kg, ip, q3d×4 wks, tumor volume vs vehicle control, day 39 after tumor implantation, p=0.001) [%] | body weight loss ([1]; mice, 60 mg/kg ip q3d, after 3 doses, tolerability developed afterwards) [%] | other gross clinical abnormality ([1]; mice, 60 mg/kg ip q3d×4 wks)
1 | Fc1ccc(COc2ccc(CNC3CCCCC3)cc2OCc2ccc(F)cc2)cc1 [XIELP1-12b, N-(3,4-bis((4-fluorobenzyl)oxy)benzyl)cyclohexanamine] | 1.77 | 1.18 | – | – | – | –
2 | Fc1ccc(COc2ccc(CNCC3CCCCC3)cc2OCc2ccc(F)cc2F)c(F)c1 [XIELP1-17b, N-(3,4-bis((2,4-difluorobenzyl)oxy)benzyl)-1-cyclohexylmethanamine] | 0.84 | 0.94 | – | – | – | –
3 | Fc1ccc(COc2ccc(CNC3CCCCC3)cc2OCc2ccc(F)cc2F)c(F)c1 [XIELP1-20a, N-(3,4-bis((2,4-difluorobenzyl)oxy)benzyl)cyclohexanamine] | 2.53 | 1.13 | – | – | – | –
4 | Cc1ccc(COc2ccc(CNCCO)cc2OCc2ccc(C)cc2)cc1 [XIELP1-24b, 2-((3,4-bis((4-methylbenzyl)oxy)benzyl)amino)ethan-1-ol] | 2.56 | 0.63 | 1.21 | – | – | –
5 | Cc1ccc(COc2ccc(CNCC3CCCCC3)cc2OCc2ccc(C)cc2)cc1 [XIELP1-25b] | 1.51 | 0.92 | 1.26 | – | – | –
6 | Cc1ccc(COc2ccc(CNC3CCCCC3)cc2OCc2ccc(C)cc2)cc1 [XIELP1-51, N-(3,4-bis((4-methylbenzyl)oxy)benzyl)cyclohexanamine] | 5.36 | 1.83 | – | – | – | –
7 | Fc1ccc(COc2cc(CNCC3CCCCC3)cc(OCc3ccc(F)cc3F)c2)c(F)c1 [XIELP1-58, N-(3,5-bis((2,4-difluorobenzyl)oxy)benzyl)-1-cyclohexylmethanamine] | 2.5 | 1.4 | – | – | – | –
8 | Fc1ccc(COc2cc(CNC3CCCCC3)cc(OCc3ccc(F)cc3F)c2)c(F)c1 [XIELP1-60, N-(3,5-bis((2,4-difluorobenzyl)oxy)benzyl)cyclohexanamine] | 2.51 | 1.33 | – | – | – | –
9 | Fc1ccc(COc2ccc(CNCC3CCCCC3)cc2OCc2ccc(F)cc2)cc1 [XIELP1-106, N-(3,4-bis((4-fluorobenzyl)oxy)benzyl)-1-cyclohexylmethanamine Hydrochloride] | 2.46 | 0.72 | – | 23 | 11.2 | No other gross clinical abnormality was observed
